From US6159940A, “Method for modulating hemopoiesis” (Immunotech Developments Inc., priority 1999, dated 2000)

What was measured:
[1] = Acute toxicity in dogs; assay type: in vivo; settings: 6 dogs
Experimental: To establish the safety of use of the peptides, toxicity tests were performed. Toxicity tests where performed in accordance Pharmacological Committee Russian Federation (RF) "guidelines for the pre-clinical study of general toxic activity of new pharmacological compounds". M., 1985.
Acute toxicity was studied in 20 guinea pigs and 6 dogs. […] The drug has a wide therapeutic range.

[2] = test system: T-cell; experiment: T-cell count in spleen, spontaneous rosette formation with sheep erythrocytes (E-FRC); assay type: in vivo, (CBA×C57BL)F1 mice
Experimental: Females and male (CBA×C57BL)F1 mice, aged about 2.5 months weighing about 20 g, were irradiated with gamma-rays using a "Luch-1" apparatus. Immunological activity was assessed according to Jerne (Antibody Forming Cells count--AFC). T-cell count in spleen was determined by the method of spontaneous rosette formation with sheep erythrocytes (E-FRC). The peptide was injected intramuscularly.
Mice were irradiated in a dose of 2 Gy, the peptide was injected in the dose of 10 μg/kg according to the following scheme (to determine T-cell count by the method of spontaneous rosette formation): 1 time--an hour after the irradiation; 2 times--an hour, and a day after irradiation; 3 times--an hour, a day, and two days after the irradiation; 4 times--an hour, a day, two days and three days after the irradiation. The intact mice recieved the peptide 3 or 4 times. The control group (2 Gy) recieved injections of physiological solution according to the same schedule. On completion of the treatment course, 10 mice from each group were immunized with sheep erythrocytes (SE) and 4-5 days later AFC counts were determined in their spleens. The rest of the mice were used to find T-cell count by the method of spontaneous rosette formation. The state of the organs of immune system (spleen and thymus) in mice with radiation immunodeficiency against the background of H-Ile-Glu-Trp-OH treatment was also listed by nucleated cell counts in thymus and spleen per mg of organ weight. AFC/mg Spleen weight is presented as an average of two experiments.

[3] = test system: hemopoietic progenitor cells; experiment: Exogenous spleen colonies from irradiated bone marrow cells; assay type: in vivo, mice; settings: day 9
Experimental: For this purpose, known methods using exogenous spleen colonies were applied. […] Different doses of the peptide were injected intravenously (i.v.), intraperitoneally (i.p.), or intramuscularly (i.m.) to lethally irradiated recipients an hour after the injections of irradiated bone marrow. Colonies were counted on day 9. 350 mice were used as test animals. The data for each group are the average of three tests.

[4] = test system: lymphocyte subpopulations in peripheral blood; experiment: Clinical study: hemogram and immune phenotyping in patients with chronic lymphoid leukosis; assay type: in vivo
From the text: The study was continued in groups of patients with immune cytopenias, multiple myeloma, chronic lymphoid leukosis, lymphocytic lymphomas, lymphosarcomas (55 patients). Special attention was paid to the group of patients with P-cellular lymphoid leukosis. The peculiarity of the leukemic B-lymphocyte clone and its relatively vast representation in the peripheral blood of patients with a pronounced secondary immune deficiency makes B-cellular chronic Lymphoid leukosis a unique model for clinical studies of the effect of an immunomodulator.
Immune phenotyping is the most reliable method to determine the changes of ratios of immunocompetent cells in the peripheral blood and lymphocyte-containing organs. The method allows detection of subpopulations by the presence of cellular differentiating antigen structures on lymphocyte surface. For more trustworthy results, some patients were examined using a flow-type cytoflourimeter and monoclonal antibodies. Taking into account the contingent of the patients, the main surface structures to be examined were the following: CD45++CD14-, CD45+CD14-, CD45+CD14+, CD3+CD19-, CD3-CD19+, CD4+CD8-, CD4-CD8+, CD3+HLA- DR+, CD3+CD16,56+, CD34+, CDS+.
The dynamics of CD4+CD8- and CD4-CD8+ (T-helpers and T-suppressers) and the dynamics of other necessary CD-markers were determined in the course of treatment with H-Ile-Glu-Trp-OH. A special attention was paid to CD45++CD14- and CD45+CD14 as they characterize the proportion between normal and leukemic lymphocytes in chronic lymphoid leukosis and illustrate the influence of the immunoactive peptide on the proportion. These peculiarities connected with the characteristics of the disease allow investigation of the molecular mechanism of its genesis. In the case of an immune cytopenia most important are the quantitative ratios of CD45++CD14- and CD45+CD14- to CD4-CD8+, their reliable values can be obtained with the help of a cytofluorimeter.
One ml daily, intranasally, once or twice in divided doses, for 5 days. The course was repeated after a 3-week interval. To those patients who received a cytostatic mono- or polychemotherapy, H-Ile-Glu-Trp-OH was administered from the first day of the break in the cytostatic treatment.

[5] = Patient 0., * % of cells in mixed population of CD45++CD14- and CD45+CD14-
[6] = Patient S., * % of cells in the CD45+CD14- subpopulation

H-Ile-Glu-Trp-OH
acute toxicity [1]: No toxic effects were observed | T-Cell Count, column 1 ([2]; 2 Gy, 1 Injection): 34.5 ± 1.7 10^3 /mg Spleen | T-Cell Count, column 1 ([2]; 2 Gy, 2 Injection): 35.6 ± 1.8 10^3 /mg Spleen | T-Cell Count, column 1 ([2]; 2 Gy, 3 Injection): 45.3 ± 3.4 10^3 /mg Spleen | T-Cell Count, column 2 ([2]; 2 Gy, 3 Injection): 23.2 ± 3.7 10^3 /mg Spleen | T-Cell Count, column 1 ([2]; 2 Gy, 4 Injection): 48.4 ± 2.5 10^3 /mg Spleen | T-Cell Count, column 2 ([2]; 2 Gy, 4 Injection): 13.0 ± 0.8 10^3 /mg Spleen | T-Cell Count, column 2 ([2]; intact mice, 3 Injections): 12.7 ± 1.5 10^3 /mg Spleen | T-Cell Count, column 2 ([2]; intact mice, 4 Injections): 18.7 ± 5.8 10^3 /mg Spleen | Colony Count ([3]; bone marrow 1 Gy, 2.5 mcg/Kg i.v.): 6.0 ± 0.7 | Colony Count ([3]; bone marrow 1 Gy, 10 mcg/Kg i.m.): 10.6 ± 0.8 | Colony Count ([3]; bone marrow 1 Gy, 10 mcg/Kg i.p.): 8.2 ± 0.7 | Colony Count ([3]; bone marrow 1 Gy, 10 mcg/Kg i.v.): 8.7 ± 0.4 | Colony Count ([3]; bone marrow 1 Gy, 25 mcg/Kg i.v.): 7.6 ± 0.4 | Colony Count ([3]; bone marrow 1 Gy, 50 mcg/Kg i.v.): 7.1 ± 0.5 | Colony Count ([3]; bone marrow 1 Gy, 100 mcg/Kg i.v.): 6.0 ± 0.5 | Colony Count ([3]; bone marrow 1 Gy, 200 mcg/Kg i.v.): 5.3 ± 0.7 | Colony Count ([3]; bone marrow 1 Gy, 500 mcg/Kg i.v.): 4.2 ± 0.3 | Colony Count ([3]; bone marrow 3 Gy, 10 mcg/Kg i.v.): 2.3 ± 0.3 | % of Cells after H-Ile-Glu-Trp-OH Treatment, CD45++CD14- lymphocytes ([4]; Patient 0.): 28% | % of Cells after H-Ile-Glu-Trp-OH Treatment, CD45+CD14+ monocytes ([4]; Patient 0.): 3.6% | % of Cells after H-Ile-Glu-Trp-OH Treatment, CD45+CD14- granulocytes ([4]; Patient 0.): 63.8% | Absolute Count after treatment, CD45++CD14- lymphocytes ([4]; Patient 0.): 5.8 bln/l | number of cells with CD45++CD14- markers after treatment ([4]; Patient 0.): grew three times | Lymphocytes absolute after treatment course ([4]; Patient 0. (before: 11.2)): 15.4 blnd | leukocytes after treatment course ([4]; Patient 0. (before: 17.3)): 20.8 blnd | Lymphocytes after treatment course ([4]; Patient 0. (before: 65)): 74% | % of Cells after H-Ile-Glu-Trp-OH Treatment, CD4+CD8- T-helpers [4, 5]: 8.2% | % of Cells after H-Ile-Glu-Trp-OH Treatment, CD4-CD8+ T-suppressers [4, 5]: 8.1% | CD4+/CD8+ ratio after H-Ile-Glu-Trp-OH Treatment ([4]; Patient 0., * mixed population of CD45++CD14- and CD45+CD14-): 1.0 | % of Cells after H-Ile-Glu-Trp-OH Treatment, CD45++CD14- lymphocytes ([4]; Patient B.): 9.5% | % of Cells after H-Ile-Glu-Trp-OH Treatment, CD45+CD14+ monocytes ([4]; Patient B.): 2.1% | % of Cells after H-Ile-Glu-Trp-OH Treatment, CD45+CD14- granulocytes ([4]; Patient B.): 86.4% | Absolute Count after treatment, CD45++CD14- lymphocytes ([4]; Patient B.): 2.52 bln/l | Lymphocytes absolute after treatment ([4]; Patient B. (before: 18.7)): 21.8 bln/1 | leukocytes after treatment ([4]; Patient B. (before: 23,0)): 26.6 bin/1 | Lymphocytes after treatment ([4]; Patient B. (before: 85)): 82% | % of Cells after H-Ile-Glu-Trp-OH Treatment, CD3+CD19- T-lymphocytes ([4]; Patient B., marked *): 10.6% | % of Cells after H-Ile-Glu-Trp-OH Treatment, CD3+HLA-DR+ activated T-lymphoc. ([4]; Patient B., marked *): 1.31% | % of Cells after H-Ile-Glu-Trp-OH Treatment, CD3-CD19+ B-lymphocytes ([4]; Patient B., marked *): 85.3% | % of Cells after H-Ile-Glu-Trp-OH Treatment, CD4+CD8- T-helpers ([4]; Patient B., marked *): 6.4% | % of Cells after H-Ile-Glu-Trp-OH Treatment, CD4-CD8+ T-suppressers ([4]; Patient B., marked *): 3.8% | CD4+/CD8+ ratio after H-Ile-Glu-Trp-OH Treatment ([4]; Patient B., marked *): 1.7 | % of Cells after H-Ile-Glu-Trp-OH Treatment, CD3+CD19- T-lymphocytes ([4]; Patient M.): 35.6% | % of Cells after H-Ile-Glu-Trp-OH Treatment, CD3-CD19+ B-lymphocytes ([4]; Patient M.): 61.2% | % of Cells after H-Ile-Glu-Trp-OH Treatment, CD4+CD8- T-helpers ([4]; Patient M.): 11.6% | % of Cells after H-Ile-Glu-Trp-OH Treatment, CD4-CD8+ T-suppressers ([4]; Patient M.): 30.6% | % of Cells after H-Ile-Glu-Trp-OH Treatment, CD45++CD14- lymphocytes ([4]; Patient M.): 43.2% | % of Cells after H-Ile-Glu-Trp-OH Treatment, CD45+CD14+ monocytes ([4]; Patient M.): 4.5% | % of Cells after H-Ile-Glu-Trp-OH Treatment, CD45+CD14- granulocytes ([4]; Patient M.): 47.7% | Absolute Count after treatment, CD45++CD14- lymphocytes ([4]; Patient M.): 3.715 bln/l | CD4+/CD8+ ratio after H-Ile-Glu-Trp-OH Treatment ([4]; Patient M.): 0.4 | Lymphocytes absolute after treatment course ([4]; Patient M. (before: 3.24)): 3.62 bln/1 | leukocytes after treatment course ([4]; Patient M. (before: 7.9)): 8.6 blnA | Lymphocytes after treatment course ([4]; Patient M. (before: 41)): 42% | % of Cells after H-Ile-Glu-Trp-OH Treatment, CD3+CD19- T-lymphocytes ([4]; Patient S.): 52.0% | % of Cells after H-Ile-Glu-Trp-OH Treatment, CD3+HLA-DR+ activated T-lymphoc. ([4]; Patient S.): 16.0% | % of Cells after H-Ile-Glu-Trp-OH Treatment, CD3-CD19+ B-lymphocytes ([4]; Patient S.): 40.0% | % of Cells after H-Ile-Glu-Trp-OH Treatment, CD4+CD8- T-helpers ([4]; Patient S.): 27.1% | % of Cells after H-Ile-Glu-Trp-OH Treatment, CD4-CD8+ T-suppressers ([4]; Patient S.): 36.5% | % of Cells after H-Ile-Glu-Trp-OH Treatment, CD45++CD14- lymphocytes ([4]; Patient S.): 13.5% | % of Cells after H-Ile-Glu-Trp-OH Treatment, CD45+CD14+ monocytes ([4]; Patient S.): 0.8% | % of Cells after H-Ile-Glu-Trp-OH Treatment, CD45+CD14- granulocytes ([4]; Patient S.): 78.0% | Absolute Count after treatment, CD45++CD14- lymphocytes ([4]; Patient S.): 9.112 bln/l | CD4+/CD8+ ratio after H-Ile-Glu-Trp-OH Treatment ([4]; Patient S.): 0.7 | Lymphocytes absolute after treatment course ([4]; Patient S. (before: 48.04)): 58.06 bln/1 | leukocytes after treatment course ([4]; Patient S. (before: 57.2)): 67.5 bin/1 | Lymphocytes after treatment course ([4]; Patient S. (before: 84)): 86% | count of lymphocytes belonging to the population of conventionally normal lymphocytes ([4]; Patient S., after the treatment): doubled | % of Cells after H-Ile-Glu-Trp-OH Treatment, CD3+CD19- T-lymphocytes [4, 6]: 2.6% | % of Cells after H-Ile-Glu-Trp-OH Treatment, CD3+HLA-DR+ activated T-lymphoc. [4, 6]: 0.5% | % of Cells after H-Ile-Glu-Trp-OH Treatment, CD3-CD19+ B-lymphocytes [4, 6]: 96.9% | % of Cells after H-Ile-Glu-Trp-OH Treatment, CD4+CD8- T-helpers [4, 6]: 1.6% | % of Cells after H-Ile-Glu-Trp-OH Treatment, CD4-CD8+ T-suppressers [4, 6]: 1.9% | CD4+/CD8+ ratio after H-Ile-Glu-Trp-OH Treatment ([4]; Patient S., * in the CD45+CD14- subpopulation): 0.5
